In ChEMBL document CHEMBL1128491, “Flexible 1-[(2-aminoethoxy)alkyl]-3-ar(o)yl(thio)ureas as novel acetylcholinesterase inhibitors. Synthesis and biochemical evaluation” (J Med Chem, 1995):

These compounds were tested against T1, Acetylcholinesterase (Rattus norvegicus, UniProt P37136).
T1 sequence (P37136 whole entry): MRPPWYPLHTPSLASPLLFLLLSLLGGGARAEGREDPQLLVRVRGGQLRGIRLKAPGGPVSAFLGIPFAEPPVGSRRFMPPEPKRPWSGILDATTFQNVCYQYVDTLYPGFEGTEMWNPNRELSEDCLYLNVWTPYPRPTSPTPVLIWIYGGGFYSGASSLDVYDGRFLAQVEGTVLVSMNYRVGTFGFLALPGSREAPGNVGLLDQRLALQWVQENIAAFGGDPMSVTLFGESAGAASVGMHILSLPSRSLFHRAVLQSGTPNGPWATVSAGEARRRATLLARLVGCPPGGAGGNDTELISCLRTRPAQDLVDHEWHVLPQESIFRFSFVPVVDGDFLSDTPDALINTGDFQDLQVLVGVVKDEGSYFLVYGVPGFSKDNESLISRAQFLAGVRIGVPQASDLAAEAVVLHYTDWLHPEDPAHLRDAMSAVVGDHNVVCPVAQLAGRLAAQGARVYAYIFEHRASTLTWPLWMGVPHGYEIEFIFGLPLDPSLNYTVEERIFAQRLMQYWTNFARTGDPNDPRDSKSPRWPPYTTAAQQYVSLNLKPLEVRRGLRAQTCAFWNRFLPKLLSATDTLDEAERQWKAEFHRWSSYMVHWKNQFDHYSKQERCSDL
Description: In vitro inhibitory effect on rat Acetylcholinesterase
Work on `CN(CCOCCNC(=S)NC(=O)c1ccccc1)Cc1ccccc1` yielded an IC50 of 120 nM.
`CN(CCOCCNC(=S)NC(=O)C1=CC2C(=O)c3ccccc3C(=O)C2C=C1)Cc1ccccc1` (configuration not stated) was tested, and the IC50 was 6 nM.
`CN(CCOCCNC(=S)NC(=O)c1ccc2c(c1)-c1ccccc1C2=O)Cc1ccccc1` gave an IC50 of 30 nM.
With `CN(CCOCCNC(=S)Nc1ccc(OC(F)(F)F)cc1)Cc1ccccc1` the IC50 was 1000 nM.
`CN(CCOCCCNC(=S)NC(=O)c1ccccc1)Cc1ccccc1` gave an IC50 of 1100 nM.
`CN(CCOCCNC(=S)NC(=O)c1ccc(-c2ccccc2)cc1)Cc1ccccc1` was tested, and the IC50 was 230 nM.
`CN(CCOCCNC(=S)NC(=O)c1ccc(Cl)c(Cl)c1)Cc1ccccc1` showed an IC50 of 55 nM.
In the case of `Cc1ccc(C(=O)NC(=S)NCCOCCN(C)Cc2ccccc2)cc1`, the IC50 is reported as 77 nM.
With `CN(CCOCCNC(=S)NC(=O)c1ccccc1)C1CCCCC1` the IC50 was 13 nM.
In the case of `COc1ccc(NC(=S)NCCOCCN(C)Cc2cccc([N+](=O)[O-])c2)cc1OC`, the IC50 is reported as 1500 nM.
`CCN(CCOCCNC(=O)NCc1ccccc1)CC1CCCCC1` was tested, and the IC50 was > 10000 nM.
For `CN(CCOCCNC(=S)Nc1cccc2ccccc12)Cc1ccccc1`, the IC50 was > 10000 nM.
Work on `CN(CCOCCNC(S)=NC(=O)c1cccc([N+](=O)[O-])c1)Cc1ccccc1` yielded an IC50 of 15 nM.
For `COc1ccc(C(=O)NC(=S)NCCOCCN(C)Cc2ccccc2)cc1`, the IC50 was 26 nM.
`CN(CCOCCNC(=O)Nc1ccc([N+](=O)[O-])cc1)Cc1ccccc1` showed an IC50 of 2300 nM.
Work on `CN(CCOCCNC(=S)NC1CCCCC1)Cc1ccccc1` yielded an IC50 of 1400 nM.
With `CN(CCOCC/N=C(\S)Nc1cccnc1)Cc1ccccc1` the IC50 was 4000 nM.
